From patent US9938322B2, “β-hairpin peptidomimetics” (priority 2013, dated 2018)
*1 amine or outer side, *2 acyl side, *3 side chain or, on linkers, in order; H or OH if unused. Where a SMILES comes first, the peptide text is derived from it. [ ]: non-standard residue; d: D form. Ala(thiazol-2-yl) = N[C@@H](Cc1nccs1)C(=O)O; Oic = O=C(O)[C@@H]1C[C@@H]2CCCC[C@@H]2N1; X2 = O=C([C@H](CCNCc1ccccn1)N[*:1])[*:2]; Phe(4-F) = N[C@@H](Cc1ccc(F)cc1)C(=O)O; Pro(3S-OH) = O=C(O)[C@H]1NCC[C@@H]1O; X1 = CC(C)NC[C@H](N[*:1])C(=O)[*:2]; Orn(iPr) = CC(C)NCCC[C@H](N)C(=O)O; Cha = N[C@@H](CC1CCCCC1)C(=O)O; Chg = N[C@H](C(=O)O)C1CCCCC1; Tle = CC(C)(C)[C@H](N)C(=O)O; dDab = NCC[C@@H](N)C(=O)O; hSer = N[C@@H](CCO)C(=O)O; Orn = NCCC[C@H](N)C(=O)O; Api = NC1(C(=O)O)CCNCC1; Dab = NCC[C@H](N)C(=O)O; Nva = CCC[C@H](N)C(=O)O; Dap = NC[C@H](N)C(=O)O

Tested on: human red blood cells (hRBC)
Assay: Hemolysis of human red blood cells
Assay type: cell-based
Settings: red cells of human, 1 h, 100
Protocol: Lyophilized peptides were weighed on a Microbalance (Mettler MT5) and dissolved in sterile water to a final concentration of 1 mg/ml. Stock solutions were kept at +4° C., light protected.
The peptides were tested for their hemolytic activity against human red blood cells (hRBC). Fresh hRBC were washed three times with phosphate buffered saline (PBS) and centrifuged for 10 min at 2000×g. Compounds (100 μg/ml) were incubated with 20% hRBC (v/v) for 1 h at 37° C. and shaking at 300 rpm. The final erythrocyte concentration was approximately 0.9×10^9 cells/ml. A value of 0% and 100% cell lyses, respectively, was determined by incubation of hRBC in the presence of PBS containing 0.001% acetic acid and 2.5% Triton X-100 in H2O, respectively. The samples were centrifuged, the supernatants were 8-fold diluted in PBS buffer and the optical densities (OD) were measured at 540 nm. The 100% lyses value (OD540H2O) gave an OD540 of approximately 0.5-1.0.
Percent hemolysis was calculated as follows: (OD540peptide/OD540H2O)×100%.

Point of comparison: C[C@@H]1NC(=O)[C@H](Cc2c[nH]c3ccccc23)NC(=O)[C@@H]2CCCN2C(=O)[C@H]2CCCN2C(=O)[C@H](CO)NC(=O)[C@H](C)NC(=O)[C@H](C(C)(C)C)NC(=O)[C@H](CCN)NC(=O)[C@H](Cc2c[nH]c3ccccc23)NC(=O)[C@H](CCN)NC(=O)[C@@H](CCN)NC(=O)[C@H](CCCN)NC(=O)[C@H](CCN)NC(=O)[C@H](Cc2ccc(O)cc2)NC1=O [compound 4] (cyclo(WAY[Dab][Orn][dDab][Dab]W[Dab][Tle]AS[dP]P)), “Hemolysis at 100 μg/ml” value 1%. Against it:
- C[C@@H]1NC(=O)[C@H](C(C)(C)C)NC(=O)[C@H](CCN)NC(=O)[C@H](Cc2c[nH]c3ccccc23)NC(=O)[C@H](CCN)NC(=O)[C@H](CCN)NC(=O)[C@H](CCCN)NC(=O)[C@H](CCN)NC(=O)[C@H](CC2CCCCC2)NC(=O)[C@H](CO)NC(=O)[C@H](Cc2c[nH]c3ccccc23)NC(=O)[C@@H]2CCCN2C(=O)[C@H]2CCCN2C(=O)[C@H](CO)NC1=O [Ex. 1] (cyclo(WS[Cha][Dab][Orn][Dab][Dab]W[Dab][Tle]AS[dP]P)) — the same, 1%
- COC[C@@H]1NC(=O)[C@H](C(C)(C)C)NC(=O)[C@H](CCN)NC(=O)[C@H](Cc2c[nH]c3ccccc23)NC(=O)[C@H](CCN)NC(=O)[C@H](CCN)NC(=O)[C@H](CCCN)NC(=O)[C@H](CCN)NC(=O)[C@H](CC2CCCCC2)NC(=O)[C@H](C)NC(=O)[C@H](Cc2c[nH]c3ccccc23)NC(=O)[C@@H]2CCCN2C(=O)[C@H]2CCCN2C(=O)[C@H](CO)NC1=O [Ex. 5] (cyclo(WA[Cha][Dab][Orn][Dab][Dab]W[Dab][Tle]S(Me)S[dP]P)) — lower, 0.5%
- COC[C@@H]1NC(=O)[C@H](C(C)(C)C)NC(=O)[C@H](CCN)NC(=O)[C@H](Cc2c[nH]c3ccccc23)NC(=O)[C@H](CCN)NC(=O)[C@@H](CCN)NC(=O)[C@H](CCCN)NC(=O)[C@H](CCN)NC(=O)[C@H](CC2CCCCC2)NC(=O)[C@H](CN)NC(=O)[C@H](Cc2c[nH]c3ccccc23)NC(=O)[C@@H]2CCCN2C(=O)[C@H]2CCCN2C(=O)[C@H](CO)NC1=O [Ex. 6] (cyclo(W[Dap][Cha][Dab][Orn][dDab][Dab]W[Dab][Tle]S(Me)S[dP]P)) — higher, 3%
- C[C@@H]1NC(=O)[C@H](C(C)(C)C)NC(=O)[C@H](CCN)NC(=O)[C@H](Cc2c[nH]c3ccccc23)NC(=O)[C@H](CCN)NC(=O)[C@@H](CCN)NC(=O)[C@H](CCCN)NC(=O)[C@H](CCN)NC(=O)[C@H](CC2CCCCC2)NC(=O)[C@H](CN)NC(=O)[C@H](Cc2c[nH]c3ccccc23)NC(=O)[C@@H]2CCCN2C(=O)[C@H]2CCCN2C(=O)[C@H](CO)NC1=O [Ex. 10] (cyclo(W[Dap][Cha][Dab][Orn][dDab][Dab]W[Dab][Tle]AS[dP]P)) — higher, 3.5%
- C[C@@H]1NC(=O)[C@H](C(C)(C)C)NC(=O)[C@H](CCN)NC(=O)[C@H](Cc2c[nH]c3ccccc23)NC(=O)[C@H](CCN)NC(=O)[C@@H](CCN)NC(=O)[C@H](CCCN)NC(=O)[C@H](CCNCc2ccccn2)NC(=O)[C@H](CC2CCCCC2)NC(=O)[C@H](CN)NC(=O)[C@H](Cc2c[nH]c3ccccc23)NC(=O)[C@@H]2CCCN2C(=O)[C@H]2CCCN2C(=O)[C@H](CO)NC1=O [Ex. 11] (cyclo(W[Dap][Cha][X2][Orn][dDab][Dab]W[Dab][Tle]AS[dP]P)) — lower, 0%
- COC[C@@H]1NC(=O)[C@H](C(C)(C)C)NC(=O)[C@H](CCN)NC(=O)[C@H](Cc2c[nH]c3ccccc23)NC(=O)[C@H](CCN)NC(=O)[C@@H](CCN)NC(=O)[C@H](CCCN)NC(=O)[C@H](CCN)NC(=O)[C@H](CC2CCCCC2)NC(=O)[C@H](C)NC(=O)[C@H](Cc2c[nH]c3ccccc23)NC(=O)[C@@H]2C[C@@H]3CCCC[C@@H]3N2C(=O)[C@H]2CCCN2C(=O)[C@H](CO)NC1=O [Ex. 54, cyclo(-Trp-Ala-Cha-Dab-Orn-^DDab-Dab-Trp-Dab-tBuGly-Ser(Me)-Ser-^DPro-Oic-)] (cyclo(A[Cha][Dab][Orn][dDab][Dab]W[Dab][Tle]S(Me)S[dP][Oic]W)) — higher, 3%
- CC(C)C[C@@H]1NC(=O)[C@@H]2[C@@H](O)CCN2C(=O)[C@H]2CCCN2C(=O)[C@H](CO)NC(=O)[C@H](C)NC(=O)[C@H](Cc2ccc(O)cc2)NC(=O)[C@H](CCN)NC(=O)[C@H](Cc2c[nH]c3ccccc23)NC(=O)[C@H](CCN)NC(=O)[C@@H](CCN)NC(=O)[C@H](CCCN)NC(=O)[C@H](CCN)NC(=O)[C@H](Cc2ccc(O)cc2)NC(=O)[C@H](CO)NC1=O [Ex. 55] (cyclo(LSY[Dab][Orn][dDab][Dab]W[Dab]YAS[dP][Pro(3S-OH)])) — the same, 1%
- C[C@@H]1NC(=O)[C@H](C(C)(C)C)NC(=O)[C@H](CCN)NC(=O)[C@H](Cc2c[nH]c3ccccc23)NC(=O)[C@H](CCN)NC(=O)C2(CCNCC2)NC(=O)[C@H](CCCN)NC(=O)[C@H](CCN)NC(=O)[C@H](CC2CCCCC2)NC(=O)[C@H](CN)NC(=O)[C@H](Cc2c[nH]c3ccccc23)NC(=O)[C@@H]2CCCN2C(=O)[C@H]2CCCN2C(=O)[C@H](CO)NC1=O [Ex. 62] (cyclo(W[Dap][Cha][Dab][Orn][Api][Dab]W[Dab][Tle]AS[dP]P)) — the same, 1%
- CC(C)C[C@@H]1NC(=O)[C@@H]2CCCN2C(=O)[C@H]2CCCN2C(=O)[C@H](CO)NC(=O)[C@H](C)NC(=O)[C@H](C(C)(C)C)NC(=O)[C@H](CCN)NC(=O)[C@H](Cc2c[nH]c3ccccc23)NC(=O)[C@H](CN)NC(=O)[C@@H](CCN)NC(=O)[C@H](CCCN)NC(=O)[C@H](CCN)NC(=O)[C@H](Cc2ccc(O)cc2)NC(=O)[C@H](CO)NC1=O [Ex. 103] (cyclo(LSY[Dab][Orn][dDab][Dap]W[Dab][Tle]AS[dP]P)) — the same, 1%
- CCC[C@@H]1NC(=O)[C@@H]2CCCN2C(=O)[C@H]2CCCN2C(=O)[C@H](CO)NC(=O)[C@H](C)NC(=O)[C@H](C(C)(C)C)NC(=O)[C@H](CCN)NC(=O)[C@H](Cc2c[nH]c3ccccc23)NC(=O)[C@H](CCN)NC(=O)[C@@H](CCN)NC(=O)[C@H](CCCN)NC(=O)[C@H](CCN)NC(=O)[C@H](Cc2ccc(F)cc2)NC(=O)[C@H](CO)NC1=O [Ex. 104] (cyclo([Nva]S[Phe(4-F)][Dab][Orn][dDab][Dab]W[Dab][Tle]AS[dP]P)) — lower, 0.5%
- COC[C@@H]1NC(=O)[C@H](Cc2c[nH]c3ccccc23)NC(=O)[C@@H]2CCCN2C(=O)[C@H]2CCCN2C(=O)[C@H](CO)NC(=O)[C@H](C)NC(=O)[C@H](C(C)(C)C)NC(=O)[C@H](CCN)NC(=O)[C@H](Cc2c[nH]c3ccccc23)NC(=O)[C@H](CCN)NC(=O)[C@@H](CCN)NC(=O)[C@H](CCCN)NC(=O)[C@H](CCN)NC(=O)[C@H](CC2CCCCC2)NC1=O [compound 2] (cyclo(WS(Me)[Cha][Dab][Orn][dDab][Dab]W[Dab][Tle]AS[dP]P)) — higher, 1.7%
- C[C@@H]1NC(=O)[C@H](Cc2c[nH]c3ccccc23)NC(=O)[C@@H]2CCCN2C(=O)[C@H]2CCCN2C(=O)[C@H](CO)NC(=O)[C@H](C)NC(=O)[C@H](C(C)(C)C)NC(=O)[C@H](CCN)NC(=O)[C@H](Cc2c[nH]c3ccccc23)NC(=O)[C@H](CCN)NC(=O)[C@@H](CCN)NC(=O)[C@H](CCCN)NC(=O)[C@H](CCN)NC(=O)[C@H](C2CCCCC2)NC1=O [compound 3] (cyclo(WA[Chg][Dab][Orn][dDab][Dab]W[Dab][Tle]AS[dP]P)) — higher, 2.5%
- C[C@@H]1NC(=O)[C@H](Cc2c[nH]c3ccccc23)NC(=O)[C@@H]2CCCN2C(=O)[C@H]2CCCN2C(=O)[C@H](CO)NC(=O)[C@H](Cc2nccs2)NC(=O)[C@H](C(C)(C)C)NC(=O)[C@H](CCN)NC(=O)[C@H](Cc2c[nH]c3ccccc23)NC(=O)[C@H](CCN)NC(=O)[C@@H](CCN)NC(=O)[C@H](CCCN)NC(=O)[C@H](CCN)NC(=O)[C@H](CC2CCCCC2)NC1=O [compound 7] (cyclo(WA[Cha][Dab][Orn][dDab][Dab]W[Dab][Tle][Ala(thiazol-2-yl)]S[dP]P)) — higher, 8%
- CC(C)NCCC[C@@H]1NC(=O)[C@H](CCN)NC(=O)[C@H](CC2CCCCC2)NC(=O)[C@H](CNC(C)C)NC(=O)[C@H](Cc2c[nH]c3ccccc23)NC(=O)[C@@H]2CCCN2C(=O)[C@H]2CCCN2C(=O)[C@H](CO)NC(=O)[C@H](CO)NC(=O)[C@H](C(C)(C)C)NC(=O)[C@H](CCN)NC(=O)[C@H](Cc2c[nH]c3ccccc23)NC(=O)[C@H](CCN)NC(=O)[C@@H](CCN)NC1=O [compound 8] (cyclo(W[X1][Cha][Dab][Orn(iPr)][dDab][Dab]W[Dab][Tle]SS[dP]P)) — higher, 7%
- CC(C)NC[C@@H]1NC(=O)[C@H](Cc2c[nH]c3ccccc23)NC(=O)[C@@H]2CCCN2C(=O)[C@H]2CCCN2C(=O)[C@H](CO)NC(=O)[C@H](C)NC(=O)[C@H](C(C)(C)C)NC(=O)[C@H](CCO)NC(=O)[C@H](Cc2c[nH]c3ccccc23)NC(=O)[C@H](CCN)NC(=O)[C@@H](CCN)NC(=O)[C@H](CCCN)NC(=O)[C@H](CCN)NC(=O)[C@H](CC2CCCCC2)NC1=O [compound 9] (cyclo(W[X1][Cha][Dab][Orn][dDab][Dab]W[hSer][Tle]AS[dP]P)) — higher, 2%
- C[C@@H]1NC(=O)[C@H](C(C)(C)C)NC(=O)[C@H](CCN)NC(=O)[C@H](Cc2c[nH]c3ccccc23)NC(=O)[C@H](CCN)NC(=O)[C@@H](CCN)NC(=O)[C@H](CCCN)NC(=O)[C@H](CCN)NC(=O)[C@H](CC2CCCCC2)NC(=O)[C@H](CCNCc2ccccn2)NC(=O)[C@H](Cc2c[nH]c3ccccc23)NC(=O)[C@@H]2CCCN2C(=O)[C@H]2CCCN2C(=O)[C@H](CO)NC1=O [compound 12] (cyclo(W[X2][Cha][Dab][Orn][dDab][Dab]W[Dab][Tle]AS[dP]P)) — lower, 0%
